In paper PMC4850295, “Using a Genetically Encoded Sensor to Identify Inhibitors of Toxoplasma gondii Ca^2+ Signaling” (The Journal of Biological Chemistry, 2016):
Several values for one entry are separate records, joined by “and”; a condition that tells them apart may be missing. Identical values can stand only once.

The molecules below were run on T1, GCaMP5-expressing T. gondii. Conditions: 100 uM zaprinast stimulation, 10 min pretreatment, mean of two replicates, 0.23 h, 10 µM.
T1 construct: whole extracellular parasites expressing GCaMP5 Ca2+ sensor
Set-up: species or system GCaMP5-expressing Toxoplasma gondii, extracellular; GCaMP5 fluorescence (cytosolic Ca2+) after 100 uM zaprinast in compound-pretreated extracellular parasites, background-subtracted, relative to zaprinast alone
Procedure, shortened: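 Read-out is GCaMP5 calcium fluorescence (ex 485/em 525 nm) taken 4 min after 100 μM zaprinast at 37 °C, following 10 min compound pretreatment at 10 μM in duplicate biological replicates. Values are basal-subtracted fold change versus zaprinast-only controls; parasites held extracellular in Ringer's solution.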

Row | SMILES | fold change in fluorescence relative to zaprinast alone
1 | NS(=O)(=O)c1cccc(Nc2cc(-c3ccc(F)cc3)n[nH]2)c1 [GW824645A] | 1.167 and 1.492

Same assay, conditions: 100 uM zaprinast stimulation; 10 min pretreatment; mean of two replicates; 0.23 h

Row | SMILES | fold change in fluorescence relative to zaprinast alone
2 | COc1cccc(-n2cnc3c(N/N=C/c4ccncc4)ncnc32)c1 [GW813360X] | 1.13
3 | COc1cccc(-c2c[nH]c3c(N/N=C/c4ccncc4)ncnc23)c1 [GW814408X] | 0.6391
4 | COc1cccc(-n2ncc3c(N/N=C/c4cccc(F)c4)ncnc32)c1 [GW817394X] | 1.201
5 | COc1cccc(-n2ncc3c(N/N=C/c4ccc(F)cc4)ncnc32)c1 [GW817396X] | 1.185
6 | CCCNC(=O)Nc1ccc(N(C)c2ccnc(NC3CC3)n2)cc1 [GW818933X] | 0.4908
7 | c1ccc(-c2ccc3c(-c4ccnc(Nc5ccc6c(c5)OCCO6)n4)cnn3n2)cc1 [GW818941X] | 0.7769
8 | FC(F)(F)c1cccc(Nc2nccc(-c3cnn4nc(-c5ccccc5)ccc34)n2)c1 [GW819077X] | 0.1467
9 | Cc1ccc(-c2cc3c(NC(=O)C4CC4)ncnc3o2)cc1 [GW819230X] | 1.19
10 | Cc1ccc2c(-c3ccnc(Nc4ccc(C(F)(F)F)cc4)n3)cnn2n1 [GW819776X] | 1.244
11 | Cc1ccc(C(=O)NC2CC2)cc1-c1ccc2[nH]ncc2c1 [GW820759X] | 1.265
12 | O=C(NCc1cccs1)c1cc(C(=O)c2c(Cl)cccc2Cl)c[nH]1 [GW823670X] | 1.033
13 | COc1ccc(-c2nn3ncccc3c2-c2ccnc(Nc3cccc(C(F)(F)F)c3)n2)cc1 [GW827105X] | 0.7957
14 | COc1ccc(-c2nn3ncccc3c2-c2ccnc(Nc3ccc4c(c3)OCCO4)n2)cc1 [GW827106X] | 0.9888
15 | CN1CCN(Cc2ccc(NC(=O)Nc3ccc(N(C)c4ccnc(Nc5ccc(CS(C)(=O)=O)cc5)n4)cc3)cc2)CC1 [GW827654A] | 1.248
16 | FC(F)(F)c1ccc(-c2nn3ncccc3c2-c2ccnc(Nc3cccc(C(F)(F)F)c3)n2)cc1 [GW828205X] | 0.4128
17 | FC(F)(F)c1ccc(-c2nn3ncccc3c2-c2ccnc(Nc3ccccc3)n2)cc1 [GW828206X] | 0.303
18 | Clc1ccc(-c2nn3ncccc3c2-c2ccnc(Nc3ccccc3)n2)cc1 [GW829055X] | 1.188
19 | Fc1ccc(Nc2nccc(-c3c(-c4ccc(Cl)cc4)nn4ncccc34)n2)cc1F [GW829058X] | 1.046
20 | Clc1ccc(-c2nn3ncccc3c2-c2ccnc(Nc3ccc4c(c3)OCCO4)n2)cc1 [GW829116X] | 0.6156
21 | FC(F)(F)c1ccc(-c2nn3ncccc3c2-c2ccnc(Nc3ccc(Cl)c(C(F)(F)F)c3)n2)cc1 [GW829350X] | 0.9679
22 | FC(F)(F)c1cc(Nc2nccc(-c3c(-c4ccc(Cl)cc4)nn4ncccc34)n2)ccc1Cl [GW829351X] | 0.8408
23 | COc1cccc(/C=N/Nc2ncnc3c2cnn3-c2cccc(OC)c2)c1 [GW829874X] | 1.214
24 | COc1cccc(-n2ncc3c(N/N=C/c4ccc(C)cc4)ncnc32)c1 [GW829877X] | 1.18

Row | SMILES | fold change in fluorescence relative to zaprinast alone
25 | CN1CCN(C(=O)c2ccc(NC(=O)Nc3ccc(N(C)c4ccnc(Nc5ccc(CS(C)(=O)=O)cc5)n4)cc3)cc2)CC1 [GW830263A] | 1.245
26 | CN(c1ccc(NC(=O)NCCN2CCOCC2)cc1)c1ccnc(Nc2ccc(CS(C)(=O)=O)cc2)n1 [GW830365A] | 1.217
27 | CN(c1ccc(NC(=O)Nc2cccc(Cl)c2)cc1)c1ccnc(N)n1 [GW830707A] | 0.7635
28 | CN(c1ccc(NC(=O)N2CCN(CCCN3CCOCC3)CC2)cc1)c1ccnc(Nc2ccc(CS(C)(=O)=O)cc2)n1 [GW830899A] | 1.092
29 | CN(C)CCNC(=O)Nc1ccc(N(C)c2ccnc(Nc3ccc(CS(C)(=O)=O)cc3)n2)cc1 [GW830900A] | 1.233
30 | NS(=O)(=O)c1ccc(Nc2cc(-c3cccc(O)c3)n[nH]2)cc1 [GW831090X] | 1.167
31 | NS(=O)(=O)c1ccc(Nc2cc(-c3ccc(O)c(F)c3)n[nH]2)cc1 [GW831091X] | 1.195
32 | Cc1ccc2c(-c3ccnc(Nc4ccc5c(c4)OCCO5)n3)c(-c3ccc(C(F)(F)F)cc3)nn2n1 [GW832467X] | 0.6662
33 | CN(C)CCOc1ccc(-c2cc(-c3cn[nH]c3-c3ccccn3)ccn2)cc1 [GW835314X] | 0.7262
34 | COc1cc(Nc2ncc3c(C)nc(-c4cccc(C(F)(F)F)c4)n3n2)cc(OC)c1OC [GW837331X] | 0.3788
35 | Cc1ccc(-n2nc(C(C)(C)C)cc2NC(=O)Nc2ccc(OCCN3CCOCC3)c3ccccc23)cc1 [GW839464X] | 1.059
36 | COc1cc2ncn(-c3cc(OCc4ccccc4C(F)(F)F)c(C(N)=O)s3)c2cc1OC [GW843682X] | 1.213
37 | NC(=O)c1sc(-n2cnc3ccc(C(F)(F)F)cc32)cc1OCc1ccccc1Br [GW853606X] | 1.175
38 | CC(C)(C)c1ccc2nccc(Nc3cccc(O)c3)c2c1 [GW856795X] | 0.1562
39 | Nc1ncc(-c2cccc(S(N)(=O)=O)c2)c2scc(-c3ccc(F)c(Cl)c3)c12 [GW856804X] | 0.8933
40 | Cc1ccc(O)cc1Nc1ccnc2ccc(C(C)(C)C)cc12 [GW856805X] | 0.3414
41 | COc1cc(Nc2ncc3c(C)nc(-c4cccc(Oc5ccccc5)c4)n3n2)cc(OC)c1OC [GW861893X] | 0.7386
42 | COc1cc(Nc2ncc3c(C)nc(-c4cc5ccccc5[nH]4)n3n2)cc(OC)c1OC [GW869516X] | 0.08874
43 | Cc1cccc(-c2nc(Nc3ccncc3)c3sccc3n2)n1 [GW869641X] | 1.179
44 | O=C(O[C@H]1CN[C@H](C#Cc2cc3ncnc(Nc4ccc(OCc5cccc(F)c5)c(Cl)c4)c3s2)C1)N1CCOCC1 [GW869810X] | 1.08
45 | Clc1cccc(-c2nc(Nc3ccncc3)c3ccccc3n2)c1 [GW873004X] | 1.301
46 | Cc1nc(-c2ccccc2)n2nc(NCCCN3CCOCC3)ncc12 [GW874091X] | 1.267
47 | Cc1cccc(-c2nc(Nc3cccc(C(N)=O)c3)c3ccccc3n2)n1 [GW876019X] | 1.051

Row | SMILES | fold change in fluorescence relative to zaprinast alone
48 | Fc1ccc(-c2ncn(CCCN3CCOCC3)c2-c2ccncc2)cc1 [SB-210313] | 1.039
49 | Fc1ccc(-c2ncn(CCCNCc3ccccc3)c2-c2ccncc2)cc1 [SB-210486] | 0.7327
50 | Fc1ccc(-c2ncn(CCCN3CCOCC3)c2-c2ccccn2)cc1 [SB-211742] | 1.072
51 | Fc1ccc(-c2ncn(CCCN3CCOCC3)c2-c2cccnc2)cc1 [SB-211743] | 1.228
52 | Nc1nccc(-c2c(-c3ccc(F)cc3)ncn2CCCN2CCOCC2)n1 [SB-216385] | 1.045
53 | CSc1nccc(-c2c(-c3ccc(F)cc3)ncn2CCCN2CCOCC2)n1 [SB-217146-A] | 0.6021
54 | Fc1ccc(-c2nc[nH]c2-c2ccncc2)cc1 [SB-217360] | 0.1031
55 | FC(F)(F)c1ccc(-c2ncn(CCCN3CCOCC3)c2-c2ccncc2)cc1 [SB-217780] | 0.91
56 | CCOC(=O)N1CCC(n2cnc(-c3ccc(F)cc3)c2-c2ccnc(N)n2)CC1 [SB-219952] | 0.8316
57 | Nc1nccc(-c2c(-c3ccc(F)cc3)ncn2C2CCN(Cc3ccccc3)CC2)n1 [SB-219980] | 0.5084
58 | Nc1nccc(-c2c(-c3ccc(F)cc3)ncn2C2CCNCC2)n1 [SB-220025-R] | 1.112
59 | CC1(C)CC(n2cnc(-c3ccc(F)cc3)c2-c2ccnc(N)n2)CC(C)(C)N1 [SB-221466] | 1.33
60 | CNc1nccc(-c2c(-c3ccc(F)cc3)ncn2CCCN2CCOCC2)n1 [SB-222516] | 0.95
61 | Cc1cc(-c2c(-c3ccc(F)cc3)ncn2CCCN2CCOCC2)nc(N)n1 [SB-222517] | 1.044
62 | CNc1nccc(-c2c(-c3ccc(F)cc3)ncn2C2CCN(C)CC2)n1 [SB-222903] | 0.211
63 | CC(C)N1CCC(n2cnc(-c3ccc(F)cc3)c2-c2ccnc(N)n2)CC1 [SB-223132] | 0.4026
64 | Nc1nccc(-c2c(-c3ccc(F)cc3)ncn2C2CCC(O)CC2)n1 (centres unmarked) [SB-223133] | 0.9972
65 | CCNc1nccc(-c2c(-c3ccc(F)cc3)ncn2C2CCN(C)CC2)n1 [SB-226605] | 0.6067
66 | CN1CCC(n2cnc(-c3ccc(F)cc3)c2-c2ccnc(NCCO)n2)CC1 [SB-226879] | 1.236
67 | CN1CCC(n2cnc(-c3ccc(F)cc3)c2-c2ccnc(NC3CCNCC3)n2)CC1 [SB-229482] | 0.6668
68 | Nc1nccc(-c2c(-c3ccc(F)cc3)ncn2C2CCN(CC(F)(F)F)CC2)n1 [SB-236560] | 0.7968
